Measurements as given in patent US6444695B1, “Inhibition of thrombin-induced platelet aggregation by creatine kinase inhibitors” (The Regents of the University of California, priority 2000, dated 2002).
“Also recorded” adds a separate entry of the source.

How the values were obtained:
[1] = system: primary cortical astrocyte cultures; assay: Astrocyte morphology studies (thrombin-induced shape change, stellate vs flat); format: cell-based, rat; conditions: for effect on morphological response of astrocytes to thrombin / fold greater number of astrocytes remaining stellate after thrombin: 10 pM thrombin 2 h; for fold greater number of astrocytes remaining stellate after thrombin: versus thrombin alone
Description: Coimmunoprecipitation. Primary cortical astrocyte cultures were prepared from 1- to 2-day-old Sprague-Dawley rats as described in Donovan, et al., (1997) J. Neurosci. 17: 5316-5326. Astrocytes were solubilized and incubated with control antibody (rabbit IgG) or anti-PAR-1 antibody overnight at 4° C. in the presence of protein A-Sepharose. Immunoprecipitation products were either subjected to CKB activity assays or separated by SDS/PAGE and analyzed on immunoblots with anti-CKB antibodies.
(§1) Astrocyte Morphology Studies. Oligonucleotides based on a CKB antisense sequence (GUGUCUGCAACAGCUUAGC-CAUCAG), a control reverse sequence ([…]), and an identical antisense sequence rendered insensitive to RNaseH were purchased from Sequitur (Natick, Mass.) and transformed into primary astrocyte cultures with Lipofectin (GIBCO/BRL) for 1 h. After 18 h, cells were differentiated in 1.5 mM dibutyryl cAMP for 2 h. A total of 10 pM thrombin was added for 2 h for a maximal response, and the morphology of approximately 200 cells was examined under phase-contrast micrography and scored as either stellate or flat. Antisense knockdown of CKB was confirmed by immunoblot analysis. Morphology assays were also performed after a 4-h treatment with 50 mM cyclocreatine.

CKB = CKB immunoblot after antisense knockdown; format: cell-based, rat; conditions: astrocytes, 18 h after transfection
Description: as §1

Ad12HER10 retinoblasts = assay: Thrombin/PAR-1 morphological response in retinoblasts; format: cell-based, human; conditions: Ad12HER10, data not shown
Description: Dominant Negative CKB Studies. The dominant negative CKB mutant C283S, described in Lin, et al., (1994) Biochim. Biophys. Acta 1206: 97-104, was cloned into the pIRES-EGFP vector (CLONTECH) and transfected for 6 h with Novafector (VennNova, LCC) into Ad12HER10 retinoblasts seeded into Lab-Tek II slides (Nunc). After 18 h, cells were differentiated with 2 mM dibutyryl cAMP in serum-free medium for 6 h. After addition of thrombin (160 nM) for 2 h, transfected cells (20-30%) were identified by fluorescence micrography, and the cell morphology of approximately 100 transfected cells was examined with phase-contrast illumination and scored blind to treatment as either refractile or flat.

platelets = assay: Thrombin-induced platelet aggregation in platelet-rich plasma (Chrono-Log aggregometer); format: cell-based, human; conditions: 30 min preincubation, 1 nM thrombin, PRP
Description: Blood from healthy volunteers was collected in an anti-coagulant citrate solution according to standard protocols. The whole blood/citrate solution was centrifuged at 200×g for 10 minutes to obtain platelet-rich plasma (PRP). The platelet count, as determined by Coulter Counter, was 2.88×10^8/mL. Aliquots (0.5 mL each) of the PRP were incubated with and without various concentrations of cyclocreatine (0 to 10 mM final concentration) for 30 minutes at room temperature. The aggregation assay was then carried out in the presence of thrombin (10 ul of thrombin was added to each aliquot, to a final concentration of 1 nM) with stirring at 37° C. using a Chrono-Log Whole Blood Aggregometer. (Chronolog Corp., Havertown, Pa.) Absorbance was measured at 500 nm.

astrocytes [2] = assay: Intracellular calcium assay (Fluo-3, FLIPR) in astrocytes after thrombin; format: cell-based, rat; conditions: thrombin 10 pM, cyclocreatine 50 mM 4 h or U-73122 1 μM 10 min
Description: Intracellular Calcium Assay. Astrocytes were treated with or without 50 mM cyclocreatine for 4 h. Cell medium was decanted and replaced with Fluo-3 AM (Molecular Probes) for 1 h. Some wells received 1 μM U-73122 (Biomol, Plymouth Meeting, Pa.) for 10 min before 10 pM thrombin and 10 mM EDTA injection. The relative intracellular calcium levels were monitored at […] for 210 sec in 4-8 identically treated wells by using a Fluorometric Imaging Plate Reader (Molecular Devices).

[3] = system: human umbilical vein endothelial cells (HUVEC); assay: Thrombin-induced cell rounding / contraction of HUVEC; format: cell-based; conditions: for % of cells round after thrombin: thrombin 10 pM 20 minutes (control 2%, thrombin alone 80%); for effect on thrombin-induced cell rounding / contraction: thrombin 10 pM 20 minutes
Description: Primary cultures of pooled Human umbilical vein endothelial cells (HUVEC) cells were purchased from Clonetics (Walkersville, Md.) and cultured according to the manufacturer's protocol. About 2500 cells/cm^2 were cultured in Endothelial Cell Growth Medium BulletKit-2 (Clonetics, Walkersville, Md.) on collagen (Gibco, Grand Island, N.Y.) coated RS Lab Tek II slides for 5 days until confluent. Cells were then cultured in low serum (0.5%) medium overnight. Cells were treated with 50 mM cyclocreatine for 3 to 4 hours, or with […] ROCK (Rho Kinase) inhibitor Y-27632 for 30 minutes, as described in Maekawa et al., (1999) Science 285: 895-8, hereby incorporated by reference in its entirety.
Thrombin was delivered at a final concentration of 10 pM for 20 minutes to endothelial cells. F-actin was stained with Alexa 594 phalloidin (Molecular Probes). HUVECs were examined under fluorescence and phase contrast micrography, and cells were scored as either round or flat.

[4] = system: human umbilical vein endothelial cells (HUVEC); assay: Intracellular calcium assay (Fluo-3, FLIPR) in HUVEC after thrombin; format: cell-based
Description: To assay for intracellular calcium levels, cell media was decanted and replaced with Fluo-3 AM (Molecular Probes) in […] of loading buffer with 1% Fetal Calf Serum (FCS) for 1 hour. Cells were rinsed with loading buffer and the 96-well plate was placed into a Fluorometric Imaging Plate Reader (FLIPR, Molecular Devices, Sunnyvale, Calif.). The relative intracellular calcium levels were monitored at […] for 210 seconds in 4 to 8 identically treated wells. To monitor calcium release from intracellular stores thrombin was delivered in buffer containing 10 mM EDTA. Various phospholipase C inhibitors were applied as well.

astrocytes [5] = assay: Total cellular ATP levels and cell viability; format: cell-based, rat; conditions: data not shown
Description: Materials. The protein-protein interaction screen was performed by using the Matchmaker GAL4 two-hybrid system and a rat brain cDNA library (CLONTECH). Rabbit anti-PAR-1 antibody was a gift from M. Runge (University of Texas Medical Branch, Galveston), anti-CKB antibodies were obtained from Chemicon, and anti-RhoA was from Santa Cruz Biotechnology. CKB activity was measured with CK 520 Sigma. ATP levels were measured with the bioluminescent somatic cell assay (Sigma FL-ASC). Thrombin and purified CKB were purchased from Calbiochem, and cyclocreatine was purchased from Sigma. Site-directed mutagenesis was performed with Quick Change (Stratagene). G. Molloy (Delaware University) graciously provided the CKB plasmid, and T. Ma (Baylor College, Houston) provided the dominant negative CKB mutant. Statistical analysis was carried out by using two-way ANOVA.

RhoA = RhoA activation and translocation assay; format: cell-based, rat; conditions: astrocytes, 50 mM cyclocreatine 4 h
Description: RhoA Activation and Translocation Assay. Active RhoA levels were measured in primary rat astrocytes as described in Ren, et al., (1999) EMBO J. 18: 578-585. Astrocytes received a 4-h 50 mM cyclocreatine treatment before the thrombin (10 pM) addition for 10 min. Cell lysates were incubated with GST-Rhotekin binding domain (20-30 μg) for 45 min, washed, and immunoprobed with anti-RhoA antibody. For membrane RhoA, crude membrane fractions were prepared as described in Donovan, et al., (1997) J. Neurosci. 17: 5316-5326. Fifteen micrograms of membrane protein fractions was separated by SDS/PAGE and immunoblotted with anti-RhoA antibody.

## reverse sequence ODN (Rev): control reverse sequence oligonucleotide GACUACCGAUUCGACAACGUCUGUG (chemistry not given here) [reference compound]
[1]
  effect on morphological response of astrocytes to thrombin: Neither a reverse sequence ODN (Rev) nor the ODN rendered insensitive to RNaseH had any significant effect
CKB
  CKB expression level (Western blot): Neither a reverse sequence ODN (Rev) nor the ODN rendered insensitive to RNaseH had any significant effect

## NC1=NCCN1CC(=O)O [cyclocreatine]
Ad12HER10 retinoblasts
  effect on thrombin/PAR-1 morphological response in retinoblasts: blocked
platelets; 1 mM cyclocreatine
  % Aggregation of Platelets: 88%
platelets; 5 mM cyclocreatine
  % Aggregation of Platelets: 11%
platelets; 10 mM cyclocreatine
  % Aggregation of Platelets: 0%
Astrocytes [2]
  effect on thrombin-induced peak intracellular calcium: only a minor decline
[3]; maximum dose of cyclocreatine (50 mM, 3 to 4 hours)
  % of cells round after thrombin: 20%
[3]
  effect on thrombin-induced cell rounding / contraction: inhibited; also recorded: dose-dependent protective effect; also recorded: protected
[4]
  effect on thrombin-induced calcium response (peak fluorescence): almost no effect; also recorded: no significant changes
Astrocytes [5]
  effect on cell viability: no effect
  effect on total cellular ATP levels: no effect
[1]
  effect on morphological response of astrocytes to thrombin: dose-dependent decrease
  fold greater number of astrocytes remaining stellate after thrombin: ≤ 4 fold
[1]; listed as Cyclocreatine
  effect on morphological response of astrocytes to thrombin: protects
RhoA; thrombin 10 pM
  RhoA translocation to the membrane after thrombin treatment: almost no translocation
RhoA; thrombin 10 pM 10 min
  GTP-RhoA after thrombin treatment (GST-rhotekin pull-down): significantly reduced

## CCCCCCCCCCCCCCCCCCOCC(COP(=O)([O-])OCC[N+](C)(C)C)OC (centres unmarked) [ET18-OCH3]
[4]
  effect on thrombin-induced calcium response (peak fluorescence): completely abolished

## CKB antisense ODNs: antisense oligonucleotide GUGUCUGCAACAGCUUAGC-CAUCAG directed toward the 3′ end of the CKB mRNA (Sequitur) (antisense GUGUCUGCAACAGCUUAGCCAUCAG; chemistry not given here)
Astrocytes [5]
  effect on cell viability: did not affect
  effect on total cellular ATP levels: did not affect
[1]
  effect on morphological response of astrocytes to thrombin: no longer responded
  fold greater number of astrocytes remaining stellate after thrombin: > 3 fold
[1]; treatment alone
  effect on astrocyte morphology without thrombin: without affecting
CKB
  CKB expression level (Western blot): significantly lower levels

## COc1ccc2c(c1)CC[C@@H]1[C@@H]2CC[C@]2(C)[C@@H](NCCCCCCN3C(=O)C=CC3=O)CC[C@@H]12 [U-73122, reference compound]
Astrocytes [2]
  effect on thrombin-induced peak intracellular calcium: inhibited
[4]
  effect on thrombin-induced calcium response (peak fluorescence): completely abolished

## C/C=C(/C)C(=O)O[C@H]1C(C)=C2[C@H]([C@@H]1OC(=O)CCCCCCC)[C@@](C)(OC(C)=O)C[C@H](OC(=O)CCC)[C@@]1(O)[C@H]2OC(=O)[C@@]1(C)O [thapsigargin]
[4]
  effect on thrombin-induced calcium response (peak fluorescence): completely abolished

## C[C@@H](N)[C@H]1CC[C@H](C(=O)Nc2ccncc2)CC1 [ROCK (Rho Kinase) inhibitor, Y-27632, reference compound]
[3]; 10 mM Y-27632 for 30 minutes
  % of cells round after thrombin: 2%
[3]
  effect on thrombin-induced cell rounding / contraction: completely blocked
